Patent US7319029B2, “Lipase from Geobacillus sp. strain T1” (Universiti Purta Malaysia, priority 2004, dated 2008)
Where a SMILES comes first, the peptide text is derived from it. [ ]: non-standard residue; d: D form. The star is where a group is joined. Sta = CC(C)C[C@H](N)[C@@H](O)CC(=O)O; Isovaleryl = CC(C)CC(=O)*

Experiments:
T1 mature lipase [1] = assay: Effect of metal ions, surfactants and inhibitors on lipase activity; assay type: biochemical, Geobacillus sp. strain T1; details: for Effect of metal ion on lipase activity: 1 mM, after 30 min of treatment; for Effect of metal ion on lipase activity / Effect of inhibitor on lipase activity / Inhibition of lipase activity: 50° C.; for Effect of surfactant on lipase activity: 0.1%; for Effect of inhibitor on lipase activity: 5 mM (Pepstatin 1 mM), 30 min; for Inhibition of lipase activity: metal ion 1 mM, after 30 min
Protocol: The T1 lipase was tested at temperatures ranging from 40° C. to 80° C. at 5° C. intervals for 30 min for enzyme activity. The thermostability test was conducted at various temperatures for different hours. Recombinant T1 lipase was also kept at a wide range of pH values ranging from pH 4-12 for pH activity and stability determination. The buffer systems used were 50 mM acetate buffer (pH 4-6), potassium phosphate buffer (pH 6-8), Tris-HCl buffer (pH 8-9), glycine-NaOH buffer (pH 9-11), and Na2HPO3/NaOH buffer (pH 11-12). The effect of effectors (metal ions, surfactants) and inhibitors were studied at a concentration of 1 mM and 5 mM, respectively at 50° C. for 30 min with an exceptional for pepstatin (1.0 mM).
The effect of metal ion at final concentration of 1 mM was tested by treatment at 50° C. for 30 min. […] The effect of surfactants on lipase activity on lipase activity was studied at concentration of 0.1% (FIG. 6).
The effect of inhibitors on lipase activity on several metal chelating agent, reducing agents, serine and aspartate inhibitors were used to study the inhibition effect to T1 mature lipase.

T1 mature lipase [2] = assay: as above; assay type: biochemical, Geobacillus sp. strain T1; details: 1 mM, 50° C., after 15 min of treatment
P1 lipase = details: 10 mM of PMSF; cited from earlier work

| Molecule | Effect of metal ion on lipase activity (T1 mature lipase [1]) | Effect of inhibitor on lipase activity (T1 mature lipase [1]) | also measured |
| --- | --- | --- | --- |
| [Mn+2] [Mn^2+] | stabilizing effect | – | Effect of metal ion on lipase activity (T1 mature lipase [2]): slightly enhanced |
| Tween | – | – | Effect of surfactant on lipase activity (T1 mature lipase [1]): obvious enhancement; Effect of surfactant on lipase activity (T1 mature lipase [1]; listed as Tween 20-80): enhancement effect |
| OCCS [β-mercaptoethanol] | – | little inhibition effect | – |
| [Zn+2] [Zn^2+] | stabilizing effect | – | – |
| [Cu+2] [Cu^2+] | – | – | Inhibition of lipase activity (T1 mature lipase [1]): 52% |
| O[C@@H](CS)[C@@H](O)CS [DTT] | – | little inhibition effect | – |
| [Na+] [Na^+] | – | – | Effect of metal ion on lipase activity (T1 mature lipase [2]): slightly enhanced |
| [Ca+2] [Ca^2+] | stabilizing effect | – | – |
| [Mg+2] [Mg^2+] | stabilizing effect | – | – |
| O=C(O)CN(CCN(CC(=O)O)CC(=O)O)CC(=O)O [EDTA] | – | slightly effect | – |
| [K+] [K^+] | stabilizing effect | – | Effect of metal ion on lipase activity (T1 mature lipase [2]): slightly enhanced |
| O=S(=O)(F)Cc1ccccc1 [PMSF] | – | strongly inhibited | Inhibition of P1 lipase (P1 lipase): 77% |
| [Fe+2] [Fe^2+] | – | – | Inhibition of lipase activity (T1 mature lipase [1]): 60% |
| CC(C)CC(=O)N[C@H](C(=O)N[C@H](C(=O)N[C@@H](CC(C)C)[C@@H](O)CC(=O)N[C@@H](C)C(=O)N[C@@H](CC(C)C)[C@@H](O)CC(=O)O)C(C)C)C(C)C [Pepstatin] (Isovaleryl-VV[Sta]A[Sta]-OH) | – | strongly inhibited | – |
